Test results as given in patent US4195101A, “2',6'-Dihydroxy-9-(2,5-dihydroxyphenyl)octylphenone and its use as an anti-oxidant” (The Lion Dentifrice Co. Ltd., priority 1977, dated 1980).

Tests used:
[1] = system: mouse; test: LD50, oral administration, mouse
[2] = LD50, oral administration, mouse; conditions: in vivo, po
[3] = Test II: oxygen absorption in corn salad oil, Warburg's manometer; conditions: 0.02% by weight in corn salad oil, 60° C.
Description: (§1) The above-obtained compound was tested for its anti-oxidative effects in terms of peroxide value by the active oxygen method (AOM) and also in terms of oxygen absorption. […] Each of the tests I and II are described below together with the results thereof.
The compound of the present invention was determined for the rate of oxygen absorption in a corn salad oil to which 0.02% by weight of the compound had been added. For the purpose, 2 grams of the corn salad oil sample was taken in the receptacle of Warburg's manometer with thermostat at 60°±0.1° C., which was shaken with 110 vibrations per minute in a vibration amplitude of 60 mm. The rate of oxygen absorption was determined by reading the manometer according to the procedure set forth in "Jikken Kagaku Koza" (Lectures in Experimental Chemistry), vol. 24, p. 85, 1958, Maruzen Publishing, Japan. In this testing, the receptacle was totally wrapped with an aluminum foil to prevent the photooxidation of the oil, and mercury was used as the manometer fluid in place of Brodie's solution in order to minimize any possible influence caused by fluctuations in the atmospheric pressure.
Further, in comparison, a similar test was conducted using the same corn salad oil with addition of 0.02% by weight of BHA or without addition of any anti-oxidant.

[4] = Test I: peroxide value of refined lard by the active oxygen method (AOM); conditions: for Peroxide value: 97.5° C.
Description: as §1
Varied amounts of the compound were admixed with and uniformly dissolved in portions of refined lard each weighing 20 g to prepare test samples. Each test sample was kept in an oil bath of thermostat at 97.5°±0.5° C., while air was forcedly blown into the lard at a rate of […].
The thus treated samples of the lard were analyzed for the peroxide value (POV for brevity) periodically or at certain intervals, in accordance with the modified Lea's method as described in "Yukagaku" (Journal of Japan Oil Chemist Society), vol. 19(15), p. 340, 1970.
In comparison, similar experiments were undertaken for the samples of the same lard with addition of BHA instead of the compound of the present invention or without addition of any anti-oxidant.

[5] = Solubility rating of 10 mg of the crystal in various solvents (Table I); format: physicochemical; conditions: for Rating of Solubility: 10 mg of crystal
Description: This compound is obtained as needle-like or plate-like crystals white to pale-yellow in appearance, tasteless, odorless and non-irritative, and has a melting point of 123.5° to 124° C. The compound is soluble in various solvents as shown in Table I. In Table I, the solubility of the compound was rated by A, B, C and D and each rating was determined for 10 mg of the crystal as follows.
A: Soluble in less than 0.1 ml of solvent.
B: Soluble in 0.1-1.0 ml of solvent.
C: Soluble in 1.0-10.0 ml of solvent.
[…]: Soluble in more than 10.0 ml of solvent.

[6] = Anti-oxidative activity, general statements
[7] = Irritation (statement on properties of the compound)

## O=C(CCCCCCCCc1cc(O)ccc1O)c1c(O)cccc1O [Inventive compound, 2',6'-dihydroxy-9-(2,5-dihydroxyphenyl)octylphenone]
[1]
  LD50 value compared with BHT: about the same as in BHT
[2]
  LD50: > 2000 mg/kg
[3]; 85 hours
  Oxygen absorption: 84.4 μ1/g
[3]; 140 hours
  Oxygen absorption: 138.7 μ1/g
[3]; 166 hours
  Oxygen absorption: 159.8 μ1/g
[3]; 199 hours
  Oxygen absorption: 174.8 μ1/g
[3]; 263 hours
  Oxygen absorption: 238.0 μ1/g
[3]; 288 hours
  Oxygen absorption: 280.4 μ1/g
[3]; 320 hours
  Oxygen absorption: 334.6 μ1/g
[3]; 343 hours
  Oxygen absorption: 375.3 μ1/g
[4]; 0.001 (% by weight) in lard, 8 hours
  Peroxide value: 2.4 meq./kg
[4]; 0.001 (% by weight) in lard, 16 hours
  Peroxide value: 5.3 meq./kg
[4]; 0.001 (% by weight) in lard, 24 hours
  Peroxide value: 8.2 meq./kg
[4]; 0.001 (% by weight) in lard, 32 hours
  Peroxide value: 14.9 meq./kg
[4]; 0.001 (% by weight) in lard, 40 hours
  Peroxide value: 419.9 meq./kg
[4]; 0.005% by weight in lard, 8 hours
  Peroxide value: 1.8 meq./kg
[4]; 0.005% by weight in lard, 16 hours
  Peroxide value: 5.0 meq./kg
[4]; 0.005% by weight in lard, 24 hours
  Peroxide value: 5.9 meq./kg
[4]; 0.005% by weight in lard, 32 hours
  Peroxide value: 6.3 meq./kg
[4]; 0.005% by weight in lard, 48 hours
  Peroxide value: 12.0 meq./kg
[4]; 0.005% by weight in lard, 56 hours
  Peroxide value: 18.2 meq./kg
[4]; 0.005% by weight in lard, 64 hours
  Peroxide value: 560.9 meq./kg
[4]; 0.005% by weight of the compound in lard
  prevention of oxidative denaturation of lard, compared with 0.02% by weight of BHA: to the same extent as done by adding 0.02% by weight of BHA
[4]; 0.01% by weight in lard, 8 hours
  Peroxide value: 1.5 meq./kg
[4]; 0.01% by weight in lard, 16 hours
  Peroxide value: 3.2 meq./kg
[4]; 0.01% by weight in lard, 24 hours
  Peroxide value: 4.8 meq./kg
[4]; 0.01% by weight in lard, 32 hours
  Peroxide value: 5.4 meq./kg
[4]; 0.01% by weight in lard, 40 hours
  Peroxide value: 7.7 meq./kg
[4]; 0.01% by weight in lard, 48 hours
  Peroxide value: 9.3 meq./kg
[4]; 0.01% by weight in lard, 56 hours
  Peroxide value: 11.3 meq./kg
[4]; 0.01% by weight in lard, 64 hours
  Peroxide value: 15.4 meq./kg
[4]; 0.01% by weight in lard, 72 hours
  Peroxide value: 22.1 meq./kg
[4]; 0.01% by weight in lard, 80 hours
  Peroxide value: 170.9 meq./kg
[4]; 0.02% by weight
  anti-oxidative effect compared with the same amount of BHA: approximately twice as high as the same amount of BHA
[4]; 0.02% by weight in lard, 8 hours
  Peroxide value: 1.8 meq./kg
[4]; 0.02% by weight in lard, 16 hours
  Peroxide value: 2.9 meq./kg
[4]; 0.02% by weight in lard, 24 hours
  Peroxide value: 3.8 meq./kg
[4]; 0.02% by weight in lard, 32 hours
  Peroxide value: 4.5 meq./kg
[4]; 0.02% by weight in lard, 40 hours
  Peroxide value: 6.0 meq./kg
[4]; 0.02% by weight in lard, 48 hours
  Peroxide value: 7.2 meq./kg
[4]; 0.02% by weight in lard, 56 hours
  Peroxide value: 8.2 meq./kg
[4]; 0.02% by weight in lard, 64 hours
  Peroxide value: 10.6 meq./kg
[4]; 0.02% by weight in lard, 72 hours
  Peroxide value: 13.2 meq./kg
[4]; 0.02% by weight in lard, 80 hours
  Peroxide value: 14.5 meq./kg
[4]; 0.02% by weight in lard, 96 hours
  Peroxide value: 21.5 meq./kg
[4]; 0.02% by weight in lard, 112 hours
  Peroxide value: 59.3 meq./kg
[4]; 0.02% by weight in lard, 120 hours
  Peroxide value: 390.7 meq./kg
[4]; 0.1% by weight in lard, 8 hours
  Peroxide value: 2.1 meq./kg
[4]; 0.1% by weight in lard, 16 hours
  Peroxide value: 3.0 meq./kg
[4]; 0.1% by weight in lard, 24 hours
  Peroxide value: 4.1 meq./kg
[4]; 0.1% by weight in lard, 32 hours
  Peroxide value: 5.2 meq./kg
[4]; 0.1% by weight in lard, 40 hours
  Peroxide value: 7.9 meq./kg
[4]; 0.1% by weight in lard, 48 hours
  Peroxide value: 8.7 meq./kg
[4]; 0.1% by weight in lard, 56 hours
  Peroxide value: 9.9 meq./kg
[4]; 0.1% by weight in lard, 64 hours
  Peroxide value: 11.8 meq./kg
[4]; 0.1% by weight in lard, 72 hours
  Peroxide value: 13.5 meq./kg
[4]; 0.1% by weight in lard, 80 hours
  Peroxide value: 16.0 meq./kg
[4]; 0.1% by weight in lard, 96 hours
  Peroxide value: 18.5 meq./kg
[4]; 0.1% by weight in lard, 112 hours
  Peroxide value: 24.0 meq./kg
[4]; 0.1% by weight in lard, 120 hours
  Peroxide value: 24.1 meq./kg
[4]; 0.1% by weight in lard, 144 hours
  Peroxide value: 29.9 meq./kg
[4]; 0.1% by weight in lard, 168 hours
  Peroxide value: 32.1 meq./kg
[4]; 0.1% by weight in lard, 192 hours
  Peroxide value: 38.1 meq./kg
[4]; 0.1% by weight in lard, 200 hours
  Peroxide value: 45.0 meq./kg
[4]; 0.1% by weight in lard, 264 hours
  Peroxide value: 678.2 meq./kg
[5]; 1,2-Dichloroethane, at 25° C.
  Rating of Solubility: C (Soluble in 1.0-10.0 ml of solvent)
[5]; 1,2-Dichloroethane, at the boiling point of solvent
  Rating of Solubility: A (Soluble in less than 0.1 ml of solvent)
[5]; Acetone, at 25° C.
  Rating of Solubility: A (Soluble in less than 0.1 ml of solvent)
[5]; Acetone, at the boiling point of solvent
  Rating of Solubility: A (Soluble in less than 0.1 ml of solvent)
[5]; Acetonitrile, at 25° C.
  Rating of Solubility: A (Soluble in less than 0.1 ml of solvent)
[5]; Acetonitrile, at the boiling point of solvent
  Rating of Solubility: A (Soluble in less than 0.1 ml of solvent)
[5]; Benzene, at the boiling point of solvent
  Rating of Solubility: B (Soluble in 0.1-1.0 ml of solvent)
[5]; Carbon tetrachloride, at the boiling point of solvent
  Rating of Solubility: C (Soluble in 1.0-10.0 ml of solvent)
[5]; Chloroform, at 25° C.
  Rating of Solubility: C (Soluble in 1.0-10.0 ml of solvent)
[5]; Chloroform, at the boiling point of solvent
  Rating of Solubility: C (Soluble in 1.0-10.0 ml of solvent)
[5]; Dichloromethane, at the boiling point of solvent
  Rating of Solubility: C (Soluble in 1.0-10.0 ml of solvent)
[5]; Diethylether, at 25° C.
  Rating of Solubility: A (Soluble in less than 0.1 ml of solvent)
[5]; Diethylether, at the boiling point of solvent
  Rating of Solubility: A (Soluble in less than 0.1 ml of solvent)
[5]; Ethyl acetate, at 25° C.
  Rating of Solubility: A (Soluble in less than 0.1 ml of solvent)
[5]; Ethyl acetate, at the boiling point of solvent
  Rating of Solubility: A (Soluble in less than 0.1 ml of solvent)
[5]; Ethyl alcohol, at 25° C.
  Rating of Solubility: A (Soluble in less than 0.1 ml of solvent)
[5]; Ethyl alcohol, at the boiling point of solvent
  Rating of Solubility: A (Soluble in less than 0.1 ml of solvent)
[5]; Methyl alcohol, at 25° C.
  Rating of Solubility: A (Soluble in less than 0.1 ml of solvent)
[5]; Methyl alcohol, at the boiling point of solvent
  Rating of Solubility: A (Soluble in less than 0.1 ml of solvent)
[5]; Pyridine, at 25° C.
  Rating of Solubility: A (Soluble in less than 0.1 ml of solvent)
[5]; Pyridine, at the boiling point of solvent
  Rating of Solubility: A (Soluble in less than 0.1 ml of solvent)
[5]; Toluene, at the boiling point of solvent
  Rating of Solubility: B (Soluble in 0.1-1.0 ml of solvent)
[5]; ethyl acetate and ethyl alcohol, in words
  solubility in ethyl acetate and ethyl alcohol: readily soluble
[5]; iso-Propyl alcohol, at 25° C.
  Rating of Solubility: A (Soluble in less than 0.1 ml of solvent)
[5]; iso-Propyl alcohol, at the boiling point of solvent
  Rating of Solubility: A (Soluble in less than 0.1 ml of solvent)
[5]; ligroin and chloroform, in words
  solubility in ligroin and chloroform: insoluble or hardly soluble
[5]; n-Butyl alcohol, at 25° C.
  Rating of Solubility: A (Soluble in less than 0.1 ml of solvent)
[5]; n-Butyl alcohol, at the boiling point of solvent
  Rating of Solubility: A (Soluble in less than 0.1 ml of solvent)
[5]; n-Propyl alcohol, at 25° C.
  Rating of Solubility: A (Soluble in less than 0.1 ml of solvent)
[5]; n-Propyl alcohol, at the boiling point of solvent
  Rating of Solubility: A (Soluble in less than 0.1 ml of solvent)
[5]; room temperature, in words
  solubility in 1,2-dichloroethane, toluene or benzene: insoluble or hardly soluble
[6]; AOM peroxide value and oxygen absorption
  anti-oxidative activities (summary of peroxide value and oxygen absorption tests): excellent anti-oxidative activities
[6]; in foodstuffs, such as lard or the like
  anti-oxidative activities compared with the conventional anti-oxidant BHA: much higher anti-oxidative activities than the conventional anti-oxidant BHA
[7]
  irritation: non-irritative
